Data reported in patent US4462992A, “Nitroimidazole radiosensitizers for hypoxic tumor cells and compositions thereof” (priority 1982, dated 1984).
Read-outs that look alike come from different tables or passages of the source.

What was measured:
[1] = tested on: Chinese hamster cells line V-79; assay: Radiosensitization (enhancement ratio, cobalt-60 irradiation of hypoxic cells); assay type: cell-based
Protocol: (§1) Asynchronous monolayers of cultures of Chinese hamster cells line V-79 were employed in all experiments. The monolayers were derived from exponentially growing cultures. Methods of culturing and handling have been reported earlier by Cooke et al, Rad. Res. 65, 152 (1976). The plated cultures were rendered hypoxic in sealed dural containers capable of holding seven petri dishes, by purging with nitrogen (oxygen-free grade) for one hour. Irradiation was carried out by using a cobalt-60 source at a dose rate of approximately 240 rad/min according to the procedure described by Agrawal et al Rad. Res. 78:532 (1979). A dose of 1400 rad was given to hypoxic cells in glass petri dishes in the presence of a given drug concentration (2000 cells/dish). Cell survival was estimated from unirradiated toxic hypoxic cells exposed to the same drug concentration. Complete survival curves were obtained for each compound at the radiation doses of 400 to 3000 rad. The Do value was calculated for each compound and the ratio of the Do value for the hypoxic control cells to the Do value of the hypoxic drug treated cells provided the sensitized enhancement ratio of the corresponding agent.
(§2) Cultures were incubated for 6 days at 37° C. in an atmosphere of 5% CO2. The resulting colonies were fixed in absolute ethanol and stained with methylene blue and counted.

[2] = tested on: Chinese hamster cells line V-79 (oxic); assay: In vitro cytotoxicity in oxic cells (% survival); assay type: cell-based; settings: for In vitro cytoxicity in oxic cells (% survival at 4 hours): 240 min
Protocol: as §1, §2
(§3) To determine toxicity in vitro, glass petri dishes containing approximately 200 Chinese hamster cells/dish were exposed to a range of concentrations of each drug for 2 hours and/or 4 hours at 37° C. Drug concentrations between 10 μM and 0.5 mM were employed initially.

[3] = In vitro cytotoxicity in hypoxic cells (% survival); assay type: cell-based, Chinese hamster; settings: hamster, v-79 cells; for viability at 2 h, 100 µM / viability at 4 h, 100 µM: 0.1 mM; for viability at 2 h, 500 µM / viability at 4 h, 500 µM: 0.5 mM
Protocol: as §1, §2, §3

[4] = in vivo; settings: mouse, ip
Protocol: Neurotoxicity in mice was determined using mice of strain CDF1. This was carried out by (1) determining the LD50 of each compound in mice and (2) observing the animals for acute neurotoxic symptoms such as convulsions. The drugs were either solubilized or suspended in normal saline and administered intraperitoneally to groups of ten mice. […]

[5] = In vitro cytotoxicity in oxic cells (% survival); assay type: cell-based, Chinese hamster; settings: hamster, v-79 cells, oxic; for viability at 2 h, 100 µM / viability at 4 h, 100 µM: 0.1 mM; for viability at 2 h, 500 µM / viability at 4 h, 500 µM: 0.5 mM
Protocol: as §1, §2, §3

[6] = tested on: hypoxic cells (Chinese hamster cells line V-79); assay: Differential toxicity to hypoxic cells at 4 hours; assay type: cell-based
Protocol: as §1, §3

[7] = tested on: hypoxic tumor cells; settings: cited from earlier work
[8] = tested on: central nervous system; settings: cited from earlier work
[9] = Pharmacokinetics, localization in tissue in mice bearing B16 melanoma; assay type: in vivo, mouse (C57/BL); settings: for concentration at 0.5 h / concentration at 1 h / Kp at 0.5 h / Kp at 1 h: mouse, ip, 1000 mg/kg; for concentration at 0.5 h / concentration at 1 h: 1 g/kg intraperitoneal
Protocol: The drug solution was made in normal saline at a concentration of 50 mg/ml. The drug solution was injected intraperitoneally at a dose level of 1 g/kg to C57/BL mice bearing 15 day old B16 melanoma tumor. At 30 and 60 minute interval after the drug administration, mice were anesthetized, blood sample was taken directly by heart puncture and tumor and brain tissue were removed. Plasma was separated after centrifugation of the whole blood and extracted with methanol. Brain and tumor tissue were homogenized and also extracted with methanol. The methanol extracts were analyzed by reverse phase high-performance liquid chromatography employing 25% methanol as mobile phase. The peak was detected at 320 nm with a retention time of 2.3 min. The flow rate was 2 ml/min.

[10] = 2 hours, read-out: In vitro cytoxicity in hypoxic cells (% survival at 2 hours)
[11] = 4 hours, read-out: In vitro cytoxicity in hypoxic cells (% survival at 4 hours)
[12] = 2 hours, read-out: In vitro cytoxicity in oxic cells (% survival at 2 hours)
[13] = 4 hours, read-out: In vitro cytoxicity in oxic cells (% survival at 4 hours)
[14] = 2 hours, 0.01 mM, read-out: In vitro cytoxicity in oxic cells (% survival at 2 hours)
[15] = 2 hours, 0.05 mM, read-out: In vitro cytoxicity in oxic cells (% survival at 2 hours)

O=[N+]([O-])c1nccn1C1C[C@H](O)[C@@H](CO)O1 (stereo partly drawn) [H, 1(2-deoxy-D-erythro-pentofuranosyl)-2-nitroimidazole]
Radiosensitization (enhancement ratio in Chinese hamster cells) ([1]; 1.0 mM): 1.9
In vitro cytoxicity in oxic cells (% survival at 2 hours) ([2]; 0.1 mM): 95.3%
In vitro cytoxicity in oxic cells (% survival at 2 hours) ([2]; 0.5 mM, 120 min, 500 µM): 94.2%
In vitro cytoxicity in oxic cells (% survival at 2 hours) ([2]; 1.0 mM, 120 min, 1000 µM): 98.2%
In vitro cytoxicity in oxic cells (% survival at 2 hours) ([2]; 5.0 mM, 120 min, 5000 µM): 81.3%

O=[N+]([O-])c1nccn1[C@@H]1C=C[C@H](O)[C@@H](CO)O1 [A, 1(2',3didehydro-2',3dideoxy-D-erythro-hexopyranonyl)-2-nitroimidazole]
viability at 2 h, 100 µM [3, 10]: 97.3%
viability at 2 h, 250 µM ([3]; 2 hours, 0.25 mM, read-out: In vitro cytoxicity in hypoxic cells (% survival at 2 hours)): 92%
viability at 2 h, 500 µM [3, 10]: 75.9%
viability at 2 h, 1000 µM ([3]; 2 hours, 1.0 mM, read-out: In vitro cytoxicity in hypoxic cells (% survival at 2 hours)): 59.6%
viability at 4 h, 100 µM [3, 11]: 56.7%
viability at 4 h, 250 µM ([3]; 4 hours, 0.25 mM, read-out: In vitro cytoxicity in hypoxic cells (% survival at 4 hours)): 26.7%
viability at 4 h, 500 µM [3, 11]: 15.8%
viability at 4 h, 1000 µM ([3]; 4 hours, 1.0 mM, read-out: In vitro cytoxicity in hypoxic cells (% survival at 4 hours)): 0%
Radiosensitization (enhancement ratio in Chinese hamster cells) ([1]; 0.25 mM): 2.0
Radiosensitization (enhancement ratio in Chinese hamster cells) ([1]; 0.5 mM): 2.2
LD50 at 24 h [4]: 3300 mg/kg
viability at 2 h, 100 µM [5, 12]: 99%
viability at 2 h, 250 µM ([5]; 2 hours, 0.25 mM, read-out: In vitro cytoxicity in oxic cells (% survival at 2 hours)): 104%
viability at 2 h, 500 µM [5, 12]: 90%
viability at 2 h, 1000 µM ([5]; 2 hours, 1.0 mM, read-out: In vitro cytoxicity in oxic cells (% survival at 2 hours)): 82.4%
viability at 4 h, 100 µM [5, 13]: 99%
viability at 4 h, 250 µM ([5]; 4 hours, 0.25 mM, read-out: In vitro cytoxicity in oxic cells (% survival at 4 hours)): 104%
Differential toxicity to hypoxic cells at 4 hours [6]: Yes

COCC(O)Cn1ccnc1[N+](=O)[O-] (stereo not drawn) [N, Misonidazole]
effectiveness in vivo [7]: effective in vivo
Differential toxicity to hypoxic cells at 4 hours [6]: Yes
side effects in mice ([8]; administered orally): peripheral neuropathy and convulsions in mice
central nervous system toxicity ([8]; use in humans): central nervous system toxicity is a limiting factor for their use in humans

O=[N+]([O-])c1nccn1[C@@H]1C=C[C@H](O)[C@@H](CO)O1 [1-(2',3'-didehydro-2',3'-dideoxy-α-D-erythro-hexopyranosyl)-2-nitroimidazole]
tumor concentration relative to brain (Tumor/Brain ratio) ([9]; 30 and 60 min): approximately 3 fold
Ratio of Brain/Plasma, change with time ([9]; 30 to 60 min): increased with time
Ratio of Tumor/Plasma, change with time ([9]; 30 to 60 min): increased with time
Ratio of Tumor/Brain ([9]; 30 min): 2.87
Ratio of Tumor/Brain ([9]; 60 min): 2.88
concentration at 0.5 h ([9]; b16 melanoma tumor, tumor, 30 min, read-out: (B16 melanoma)): 293000 ng/g
concentration at 1 h ([9]; b16 melanoma tumor, tumor, 60 min, read-out: (B16 melanoma)): 346000 ng/g
concentration at 0.5 h ([9]; brain, 30 min, read-out: Brain): 102000 ng/g
concentration at 1 h ([9]; brain, 60 min, read-out: Brain): 120000 ng/g
Kp at 0.5 h ([9]; brain/plasma, 30 min, read-out: Ratio of Brain/Plasma): 0.097
Kp at 1 h ([9]; brain/plasma, 60 min, read-out: Ratio of Brain/Plasma): 0.18
concentration at 0.5 h ([9]; plasma, 30 min, read-out: Plasma): 1050 µg/mL
concentration at 1 h ([9]; plasma, 60 min, read-out: Plasma): 648 µg/mL
Kp at 0.5 h ([9]; tumor/plasma, 30 min, read-out: Ratio of Tumor/plasma): 0.278
Kp at 1 h ([9]; tumor/plasma, 60 min, read-out: Ratio of Tumor/plasma): 0.534

O=c1[nH]c(=O)n([C@H]2C[C@H](O)[C@@H](CO)O2)cc1Br [5-bromodeoxyuridine]
selectivity for tumor cells [7]: poor selectivity

CC(=O)OC[C@H]1O[C@H](n2ccnc2[N+](=O)[O-])C=C[C@@H]1OC(C)=O [B, 1(4',6di-O--acetyl2',3didehydro-2',3dideoxy-D-erythro-hexopyranosyl)-2-ni roimidazole]
viability at 2 h, 100 µM [3, 10]: 90.9%
viability at 2 h, 500 µM [3, 10]: 100%
viability at 4 h, 100 µM [3, 11]: 96%
viability at 4 h, 500 µM [3, 11]: 60.3%
Radiosensitization (enhancement ratio in Chinese hamster cells) ([1]; 0.5 mM): 2.0
viability at 2 h, 10 µM [5, 14]: 106%
viability at 2 h, 50 µM [5, 15]: 100%
viability at 2 h, 100 µM [5, 12]: 103%
viability at 2 h, 500 µM [5, 12]: 100%
viability at 4 h, 10 µM ([5]; 4 hours, 0.01 mM, read-out: In vitro cytoxicity in oxic cells (% survival at 4 hours)): 100%
viability at 4 h, 50 µM ([5]; 4 hours, 0.05 mM, read-out: In vitro cytoxicity in oxic cells (% survival at 4 hours)): 100%
viability at 4 h, 100 µM [5, 13]: 101%
viability at 4 h, 500 µM [5, 13]: 102%
Differential toxicity to hypoxic cells at 4 hours [6]: Yes

Cc1ncc([N+](=O)[O-])n1CCO [O, Metronidazole]
radiosensitization activity ([7]; in vivo and in vitro): active both in vivo and in vitro
effectiveness in vivo [7]: effective in vivo
Radiosensitization (enhancement ratio in Chinese hamster cells) ([1]; 1.0 mM): 1.5
Differential toxicity to hypoxic cells at 4 hours [6]: Yes
side effects in mice ([8]; in vivo, po): peripheral neuropathy and convulsions in mice
central nervous system toxicity ([8]; in vivo): central nervous system toxicity is a limiting factor for their use in humans

O=c1[nH]c(=O)n([C@H]2C[C@H](O)[C@@H](CO)O2)cc1F [5-flourodeoxyuridine]
selectivity for tumor cells [7]: poor selectivity

CC(=O)OC[C@H]1O[C@@H](n2ccnc2[N+](=O)[O-])C=C[C@@H]1OC(C)=O [C, 1(4',6di-O--acetyl2',3didehydro-2',3dideoxy-D-erythro-hexopyranosyl)-2-ni roimidazole]
viability at 2 h, 100 µM [3, 10]: 104%
viability at 2 h, 500 µM [3, 10]: 92.6%
viability at 4 h, 100 µM [3, 11]: 86.6%
viability at 4 h, 500 µM [3, 11]: 41.1%
Radiosensitization (enhancement ratio in Chinese hamster cells) ([1]; 0.5 mM): 1.6
viability at 2 h, 10 µM [5, 14]: 101%
viability at 2 h, 50 µM [5, 15]: 100%
viability at 2 h, 100 µM [5, 12]: 95%
viability at 2 h, 500 µM [5, 12]: 97%
viability at 4 h, 100 µM [5, 13]: 101%
viability at 4 h, 500 µM [5, 13]: 103%
In vitro cytoxicity in oxic cells (% survival at 4 hours) ([2]; 0.1 mM, 100 µM): 94%
In vitro cytoxicity in oxic cells (% survival at 4 hours) ([2]; 0.5 mM, 500 µM): 88%
Differential toxicity to hypoxic cells at 4 hours [6]: Yes
